We go through 27 molecules from US8222416B2, “Azaindole glucokinase activators” (Hoffmann-La Roche Inc., priority 2009, dated 2012).

The structures appear in SMILES notation.

One assay deals with T1, Recombinant human liver GK1 (GST-GK) (Homo sapiens, UniProt P35557).
T1 construct: made in house; host or cells: E. coli
T1 sequence (P35557 1-466 isoform P35557-2): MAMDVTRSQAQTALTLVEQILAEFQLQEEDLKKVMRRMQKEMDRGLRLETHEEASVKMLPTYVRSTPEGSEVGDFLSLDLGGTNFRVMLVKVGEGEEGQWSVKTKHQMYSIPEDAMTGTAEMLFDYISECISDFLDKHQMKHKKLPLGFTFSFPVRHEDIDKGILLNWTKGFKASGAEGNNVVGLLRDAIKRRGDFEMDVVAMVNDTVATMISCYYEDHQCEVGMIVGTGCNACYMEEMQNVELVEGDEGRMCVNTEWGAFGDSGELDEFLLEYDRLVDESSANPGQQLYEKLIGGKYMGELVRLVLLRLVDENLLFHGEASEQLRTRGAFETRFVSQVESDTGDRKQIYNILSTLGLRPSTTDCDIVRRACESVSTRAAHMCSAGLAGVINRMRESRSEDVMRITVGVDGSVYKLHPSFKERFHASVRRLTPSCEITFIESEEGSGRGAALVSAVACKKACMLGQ
Briefly: In vitro glucokinase activity assay (G6PDH-coupled, NADH, OD340). The format is biochemical. The settings on record: at 30 μM. In short, it runs like this: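 GST-fused human liver GK1 from E. coli, run at 30° C. in pH 7.1 HEPES with 5 mM glucose, 1 mM ATP and 10% DMSO, coupled via G6PDH to NADH. OD340 rate measured after enzyme start; SC1.5 is the activator concentration raising activity 50% over DMSO control.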
Regarding `CCS(=O)(=O)c1cnc2[nH]c(C(CC3CCCC3)c3ccc(S(C)(=O)=O)cc3)cc2c1` (stereo not drawn) [Example 125, 2-[2-Cyclopentyl-1-(4-methanesulfonyl-phenyl)-ethyl]-5-ethanesulfonyl-1H-pyrrolo[2,3-b]pyridine], the “fold activation of GK” value is recorded as 1.4 fold at 30.

Still in this assay, the particulars now being: concentration of activator that produced a 50% increase in the activity of GK; 5 mM D-glucose, 30° C.
`CN(C)CCS(=O)(=O)c1ccc(C(CC2CCCC2)c2cc3cccnc3[nH]2)cc1` (stereo not drawn) [Example 92, (2-{4-[2-Cyclopentyl-1-(1H-pyrrolo[2,3-b]pyridin-2-yl)-ethyl]-benzenesulfonyl}-ethyl)-dimethyl-amine]: the SC1.5 was found to be 1.1 µM.

In the case of `O=S(=O)(CCN1CCOCC1)c1ccc(C(CC2CCCC2)c2cc3cccnc3[nH]2)cc1` (stereo not drawn) [Example 93, 2-{2-Cyclopentyl-1-[4-(2-morpholin-4-yl-ethanesulfonyl)-phenyl]-ethyl}-1H-pyrrolo[2,3-b]pyridine], the SC1.5 amounted to 1.7 µM.

`CC(C)(O)c1ccc(C(CC2CCCC2)c2cc3cccnc3[nH]2)c(F)c1` (stereo not drawn) [Example 94, 2-{4-[2-Cyclopentyl-1-(1H-pyrrolo[2,3-b]pyridin-2-yl)-ethyl]-3-fluoro-phenyl}-propan-2-ol]: the SC1.5 stood at 2.3 µM.

As to `CC(C)(O)c1ccc(C(CC2CCOCC2)c2cc3cc(F)cnc3[nH]2)cc1F` (stereo not drawn) [Example 97, 2-{2-Fluoro-4-[1-(5-fluoro-1H-pyrrolo[2,3-b]pyridin-2-yl)-2-(tetrahydro-pyran-4-yl)-ethyl]-phenyl}-propan-2-ol], the SC1.5 was 2.2 µM.

Regarding `CC(C)CC(c1ccc(S(C)(=O)=O)cc1)c1cc2cc(F)cnc2[nH]1` (stereo not drawn) [Example 99, 5-Fluoro-2-[1-(4-methanesulfonyl-phenyl)-3-methyl-butyl]-1H-pyrrolo[2,3-b]pyridine], the SC1.5 was found to be 0.394 µM.

For the molecule `CC(C)CC(c1ccc(S(=O)(=O)CCO)cc1)c1cc2cc(F)cnc2[nH]1` (stereo not drawn) [Example 101], the SC1.5 was found to be 0.854 µM.

For the molecule `CC(C)(O)c1ccc(C(CC2CCCC2)c2cc3cc(F)cnc3[nH]2)cc1F` (stereo not drawn) [Example 103, 2-{4-[2-Cyclopentyl-1-(5-fluoro-1H-pyrrolo[2,3-b]pyridin-2-yl)-ethyl]-2-fluoro-phenyl}-propan-2-ol], the SC1.5 is 0.18 µM.

With `CC(C)CC(c1ccc(C(C)(C)O)c(F)c1)c1cc2cc(F)cnc2[nH]1` (stereo not drawn) [Example 105, 2-{2-Fluoro-4-[1-(5-fluoro-1H-pyrrolo[2,3-b]pyridin-2-yl)-3-methyl-butyl]-phenyl}-propan-2-ol], the SC1.5 was 0.368 µM.

As to `CN(C)CC(=O)Nc1cnc2[nH]c(C(CC3CCCC3)c3ccc(S(C)(=O)=O)cc3)cc2c1` (stereo not drawn) [Example 107, N-{2-[2-Cyclopentyl-1-(4-methanesulfonyl-phenyl)-ethyl]-1H-pyrrolo[2,3-b]pyridin-5-yl}-2-dimethylamino-acetamide], the SC1.5 worked out at 9.4 µM.

On to `CCOc1ccc(C(CC2CCCC2)c2cc3cccnc3[nH]2)cn1` (stereo not drawn) [Example 108, 2-[2-Cyclopentyl-1-(6-ethoxy-pyridin-3-yl)-ethyl]-1H-pyrrolo[2,3-b]pyridine], for which the SC1.5 amounted to 2.4 µM.

Regarding `c1cncc(C(CC2CCCC2)c2cc3cccnc3[nH]2)c1` (stereo not drawn) [Example 110, 2-(2-Cyclopentyl-1-pyridin-3-yl-ethyl)-1H-pyrrolo[2,3-b]pyridine], the SC1.5 was found to be 14.1 µM.

In the case of `CS(=O)(=O)c1ccc(C(CC2CCCC2)c2cc3cc(Cl)cnc3[nH]2)cc1` (stereo not drawn) [Example 111, 5-Chloro-2-[2-cyclopentyl-1-(4-methanesulfonyl-phenyl)-ethyl]-1H-pyrrolo[2,3-b]pyridine], the SC1.5 turned out to be 0.15 µM.

As for `CS(=O)(=O)c1ccc(C(CC2CCCC2)c2cc3cccnc3[nH]2)nc1` (stereo not drawn) [Example 112, 2-[2-Cyclopentyl-1-(5-methanesulfonyl-pyridin-2-yl)-ethyl]-1H-pyrrolo[2,3-b]pyridine], the SC1.5 was 0.587 µM.

For the molecule `COc1ccc2cc(C(CC3CCCC3)c3ccc(S(C)(=O)=O)cc3)[nH]c2n1` (stereo not drawn) [Example 113, 2-[2-Cyclopentyl-1-(4-methanesulfonyl-phenyl)-ethyl]-6-methoxy-1H-pyrrolo[2,3-b]pyridine], the SC1.5 was 1.8 µM.

Turning to `CS(=O)(=O)c1ccc(C(CC2CCOCC2)c2cc3cc(Cl)cnc3[nH]2)cc1` (stereo not drawn) [Example 114, 5-Chloro-2-[1-(4-methanesulfonyl-phenyl)-2-(tetrahydro-pyran-4-yl)-ethyl]-1H-pyrrolo[2,3-b]pyridine], the SC1.5 turned out to be 2.2 µM.

Take `CS(=O)(=O)c1ccc(C(O)(CC2CCC2)c2cc3cccnc3[nH]2)cc1` (stereo not drawn) [Example 115, 2-Cyclobutyl-1-(4-methanesulfonyl-phenyl)-1-(1H-pyrrolo[2,3-]pyridin-2-yl)-ethanol]: the SC1.5 was found to be 7.4 µM.

With `CS(=O)(=O)c1ccc(/C(=C\C2CCCC2)c2cc3cc(F)cnc3[nH]2)cc1` [Example 116, 2-[(E)-2-cyclopentyl-1-(4-methanesulfonyl-phenyl)-vinyl]-5-fluoro-1H-pyrrolo[2,3-b]pyridine], the SC1.5 worked out at 0.009 µM.

In the case of `CS(=O)(=O)c1ccc(C(CC2CCCC2)c2cc3cc(F)cnc3[nH]2)cc1` (stereo not drawn) [Example 117, 2-[2-Cyclopentyl-1-(4-methanesulfonyl-phenyl)-ethyl]-5-fluoro-1H-pyrrolo[2,3-b]pyridine], the SC1.5 is 0.071 µM.

For the molecule `CC(C)(O)c1ccc(C(CC2CCCC2)c2cc3cc(F)cnc3[nH]2)cc1` (stereo not drawn) [Example 119, 2-{4-[2-Cyclopentyl-1-(5-fluoro-1H-pyrrolo[2,3-b]pyridin-2-yl)-ethyl]-phenyl}-propan-2-ol], the SC1.5 stood at 0.78 µM.

As for `CC(C)c1ccc(C(CC2CCCC2)c2cc3cc(F)cnc3[nH]2)cc1` (stereo not drawn) [Example 121, 2-[2-Cyclopentyl-1-(4-isopropyl-phenyl)-ethyl]-5-fluoro-1H-pyrrolo[2,3-b]pyridine], the SC1.5 is 0.458 µM.

`CS(=O)(=O)c1ccc(C(CC2CCOCC2)c2cc3cc(F)cnc3[nH]2)cc1` (stereo not drawn) [Example 123, 5-Fluoro-2-[1-(4-methanesulfonyl-phenyl)-2-(tetrahydro-pyran-4-yl)-ethyl]-1H-pyrrolo[2,3-b]pyridine]: the SC1.5 is 0.47 µM.

Take `CS(=O)(=O)c1ccc(C(CC2CCCC2)c2cc3cc(C(F)(F)F)cnc3[nH]2)cc1` (stereo not drawn) [Example 126, 2-[2-Cyclopentyl-1-(4-methanesulfonyl-phenyl)-ethyl]-5-trifluoromethyl-1H-pyrrolo[2,3-b]pyridine]: the SC1.5 came to 2.0 µM.

On to `Cc1cnc2[nH]c(C(CC3CCCC3)c3ccc(S(C)(=O)=O)cc3)cc2c1` (stereo not drawn) [Example 128, 2-[2-Cyclopentyl-1-(4-methanesulfonyl-phenyl)-ethyl]-5-methyl-1H-pyrrolo[2,3-b]pyridine], for which the SC1.5 was 0.85 µM.

Consider `Cc1cccc(C(CC(C)C)c2cc3cccnc3[nH]2)c1` (stereo not drawn) [Example 130, 2-(3-Methyl-1-m-tolyl-butyl)-1H-pyrrolo[2,3-b]pyridine], for which the SC1.5 turned out to be 7.8 µM.

As for `CC(C)CC(c1cccc(Cl)c1)c1cc2cccnc2[nH]1` (stereo not drawn) [Example 131, 2-(1-(3-Chloro-phenyl)-3-methyl-butyl)-1H-pyrrolo[2,3-b]pyridine], the SC1.5 turned out to be 9.9 µM.

As to `CC(C)CC(c1cccc(F)c1)c1cc2cccnc2[nH]1` (stereo not drawn) [Example 132, 2-(1-(3-Fluoro-phenyl)-3-methyl-butyl)-1H-pyrrolo[2,3-b]pyridine], the SC1.5 amounted to 10.9 µM.
